Assays:
Ovis aries = species: Ovis aries; experiment: Selectivity index, ratio of IC50 for ovine COX1 to IC50 for ovine COX2
[1] = molecular target: T1, Prostaglandin G/H synthase 2 (Ovis aries, UniProt P79208); experiment: Inhibition of ovine COX2 using arachidonic acid as substrate assessed as reduction in PGF2alpha production preincubated for 5 mins followed by substrate addition measured after 2 mins by enzyme immunoassay
T1 sequence (P79208 whole entry): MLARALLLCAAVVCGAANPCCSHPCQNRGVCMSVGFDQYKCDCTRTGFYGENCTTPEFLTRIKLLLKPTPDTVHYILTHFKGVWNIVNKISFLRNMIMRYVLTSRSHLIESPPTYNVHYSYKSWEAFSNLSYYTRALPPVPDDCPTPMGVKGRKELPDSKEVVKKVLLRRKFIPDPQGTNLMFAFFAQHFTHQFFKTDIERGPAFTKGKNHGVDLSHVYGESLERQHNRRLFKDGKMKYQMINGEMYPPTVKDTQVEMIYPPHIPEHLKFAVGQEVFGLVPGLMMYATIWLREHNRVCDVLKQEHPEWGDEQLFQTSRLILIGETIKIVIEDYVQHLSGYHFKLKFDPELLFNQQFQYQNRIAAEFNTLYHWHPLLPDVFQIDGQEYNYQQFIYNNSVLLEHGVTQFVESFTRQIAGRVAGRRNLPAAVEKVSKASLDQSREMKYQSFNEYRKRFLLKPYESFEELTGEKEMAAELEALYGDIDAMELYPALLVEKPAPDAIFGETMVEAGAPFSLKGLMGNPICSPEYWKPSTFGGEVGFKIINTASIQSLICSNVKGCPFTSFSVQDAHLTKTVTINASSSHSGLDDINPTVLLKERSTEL

MCF7 [2] = experiment: Cytostatic activity against human MCF7 cells; assay type: functional, cell-based
Estrogen receptor [3] = molecular target: T2, Estrogen receptor (Homo sapiens, UniProt P03372); experiment: Inhibition of estrogen receptor (unknown origin)
T2 sequence (P03372 whole entry): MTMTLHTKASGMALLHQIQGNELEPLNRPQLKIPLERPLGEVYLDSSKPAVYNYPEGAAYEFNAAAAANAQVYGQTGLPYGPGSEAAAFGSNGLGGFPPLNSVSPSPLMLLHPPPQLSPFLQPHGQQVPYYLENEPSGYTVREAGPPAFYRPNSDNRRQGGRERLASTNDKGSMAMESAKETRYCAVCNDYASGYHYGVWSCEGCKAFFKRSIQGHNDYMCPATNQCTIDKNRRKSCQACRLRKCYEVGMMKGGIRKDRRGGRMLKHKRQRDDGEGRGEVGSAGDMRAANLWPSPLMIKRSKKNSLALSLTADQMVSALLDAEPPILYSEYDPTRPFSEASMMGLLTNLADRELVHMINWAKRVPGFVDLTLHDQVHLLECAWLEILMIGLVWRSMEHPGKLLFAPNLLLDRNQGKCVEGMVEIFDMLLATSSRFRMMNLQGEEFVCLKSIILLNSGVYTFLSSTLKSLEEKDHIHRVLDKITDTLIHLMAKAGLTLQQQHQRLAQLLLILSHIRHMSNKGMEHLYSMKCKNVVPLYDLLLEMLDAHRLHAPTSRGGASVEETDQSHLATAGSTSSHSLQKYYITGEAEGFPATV

MCF7 [4] = experiment: Cytotoxicity against human MCF7 cells after 72 hrs by LDH assay; assay type: functional, cell-based; conditions: MCF7, 72 h
Homo sapiens [5] = species: Homo sapiens; experiment: Selectivity index, ratio of IC50 for of ERalpha receptor (unknown origin) to IC50 for ERbeta receptor (unknown origin)
Homo sapiens [6] = species: Homo sapiens; experiment: Ratio of selectivity index for test compound to selectivity index for compound for ERalpha (unknown origin) over ERbeta (unknown origin)
MCF7 [7] = experiment: Antiproliferative activity against human MCF7 cells; assay type: functional, cell-based
Estrogen receptor [8] = molecular target: T2, Estrogen receptor; experiment: Binding affinity to estrogen receptor (unknown origin)
[9] = molecular target: T3, Estrogen receptor (Homo sapiens) (UniProt P03372); experiment: Potency index, ratio of tamoxifen IC50 to compound IC50 for binding affinity to ERalpha receptor (unknown origin)
T3 sequence (whole entry): T2 sequence (P03372 whole entry)

Which Ratio IC50 (Ovis aries) does the source give for `CCCCC(=C(c1ccccc1)c1ccccc1)c1ccc(S(C)(=O)=O)cc1` here?
Its Ratio IC50 is > 7140.

And the IC50 [1]?
The IC50 was 14 nM.

With `CCc1c(-c2ccccc2)c2cnn(OCCCN(C)C)c2c2ccccc12` as the compound, how does the IC50 (MCF7 [2]) read?
The IC50 was 1000 nM.

`CCN(CC)CCOc1ccc(C(=C(C#N)c2ccccc2)c2ccc(OCCN(CC)CC)cc2)cc1` was tested. Which IC50 (Estrogen receptor [3]) did it give?
Its IC50 is > 10 µM.

How did the IC50 (Estrogen receptor [3]) turn out when `CN1CCN(CCOc2ccc(C(=C(C#N)c3ccccc3)c3ccc(OCCN4CCN(C)CC4)cc3)cc2)CC1` was run?
The IC50 was > 10 µM.

For `CC/C(=C(\c1ccccc1)c1cnn(OCCCN(C)C)c1)c1ccccc1`, which IC50 (MCF7 [2]) is on record?
Its IC50 is 3000 nM.

Which IC50 (MCF7 [2]) does the source give for `CC/C(=C(\c1ccccc1)c1ccc(OCCN(C)C)cc1)c1ccccc1` [TAMOXIFEN] here?
Its IC50 is 2700 nM.

Which IC50 (MCF7 [4]) does the source give for `CC/C(Cc1ccccc1)=C(\c1ccccc1)c1ccc(OCCN2CCCC2)cc1` here?
The IC50 was 12.5 µM.

With `CCC(Cc1ccccc1)=C(c1ccc(O)cc1)c1ccc(OCCN2CCCC2)cc1` as the compound, how does the Ratio IC50 (Homo sapiens [5]) read?
The Ratio IC50 was 12.

And the Ratio IC50 (Homo sapiens [6])?
Its Ratio IC50 is 900.

What about the IC50 (MCF7 [7]) of the same compound?
The IC50 was < 250 nM.

And the IC50 (Estrogen receptor [8])?
The IC50 was 20 nM.

What about the Ratio IC50 [9] of the same compound?
Its Ratio IC50 is 80.
